Results on five compounds are retold here after patent US7524849B2, “5-arylpyrimidines as anticancer agents” (Wyeth Holdings Corporation, priority 2003, dated 2009).

For data set [1], the system named is S1-M1 cells. Put plainly: MTS cytotoxicity test with S1-M1 cells (MXR). Format: cell-based, human. The following applies: for IC50: S1-M1 cells, mean of 2 experiments; for Ratio: IC50 on S1-M1 cells/IC50 on S1 cells. The text has this: (§1) Human cancer cell lines, unless otherwise noted, are obtained from the American Type Culture Collection (Rockville, Md.). The following drug-sensitive parental cell lines, and their derived drug-resistant counterparts, are obtained from the originators as listed: (a) S1 (parental line from a subclone of human colon carcinoma line LS174T) and derived S1-M1-3.2 (herein called S1-M1) which expresses the MXR drug transporter protein, are provided by Dr. L. Greenberger, Wyeth Research (Rabindran, S. K., He, H., Singh, M., Brown, E., Collins, K. I., Annable, T., and Greenberger, L. M. Reversal of a novel multidrug resistance mechanism in human colon carcinoma cells by fumitremorgin C. Cancer Res., 58: 5850-5858, 1998); (b) parental HL-60 human promyelocytic leukemia line and derived HL-60/ADR, which expresses the MRP1 drug transporter protein, are provided by Dr. M. Center, University of Kansas (McGrath, T., and Center, M. S. Adriamycin resistance in HL60 cells in the absence of detectable P-glycoprotein. Biochem. Biophys. […] J. Biol. Chem., 261: 7762-7770, 1986) via Dr. L. Greenberger, Wyeth Research.
(§2) The assay, which is sold in kit form by Promega (Madison, Wis.; CellTiter 96 AQueous Non-Radioactive Cell Proliferation Assay), is based on the conversion by viable cells, but not by dead cells, of the tetrazolium salt, MTS (3-(4,5-dimethylthiazol-2-yl)-5-(3-carboxymethoxyphenyl)-2-(4-sulphophenyl)-2H-tetrazolium, inner salt), into a water-soluble colored formazan which is detected by spectrophotometry. Compounds are tested at nine concentrations, in order to determine IC50 values. For the test procedure, cells are harvested by trypsinization, washed, counted and distributed to wells of 96-well flat-bottom microtiter plates at 1000 cells per well in 200 μL of medium. In addition, one row of wells on a separate plate receives cells as above (“time 0” plate). All plates are incubated at 37° in humidified 5% CO2 in air for about 24 hr.
(§3) On day 2, compounds for test are diluted and added to wells. Compounds are dissolved in DMSO at 10 mg/mL. For each compound, nine serial 2-fold dilutions are prepared in DMSO. Ten μL of each dilution in DMSO are transferred to 100 μL of medium, mixed well, and then 5 μL of this dilution are transferred in quadruplicate to wells containing cells. […] Plates are returned to the incubator for three days. At the time of drug addition to the experimental plates, the MTS assay is run on the “time 0” plate. This produces the “time 0 MTS value” which is related to the number of viable cells per well at the time of drug addition.
(§4) After three days of culture with test compounds (day 5 overall), the MTS assay is done on all wells of the experimental plates. The absorbance values of the quadruplicate sample wells are averaged and divided by the average of the “time 0” values. […] The nine values for each compound are plotted against concentration, and the concentration that produces a relative color yield half way between the maximum and minimum is taken as the IC50 value.
(§5) S1-M1 cells overexpress the MXR transporter which mediates resistance to some chemotherapeutics (Gottesman, M. M., Fojo, T., and Bates, S. E. Miltidrug resistance in cancer: role of ATP-dependent transporters. Nature Rev. Cancer, 2: 48-58, 2002). The IC50 values of representative examples of this invention, as well as reference compounds, on S1-M1 are compared to values on the sensitive parental S1 line.

The test system of data set [2] is HL-60/ADR cells. Put plainly: MTS cytotoxicity test with HL-60/ADR cells (MRP1). The conditions noted are these: for IC50: HL-60/ADR cells, mean of 2 experiments; for Ratio: IC50 on HL-60/ADR cells/IC50 on HL-60 cells. Format: cell-based, human.
Excerpt: as §1, §2, §3, §4
(§6) HL-60/ADR cells overexpress the multidrug resistance protein MRP1 which mediates resistance to some chemotherapeutics (Gottesman, M. M., Fojo, T., and Bates, S. E. Multidrug resistance in cancer: role of ATP-dependent transporters. Nature Rev. Cancer, 2: 48-58, 2002). The IC50 values of representative examples of this invention, as well as reference compounds, on HL-60/ADR are compared to values on the sensitive parental HL-60 line.

Data set [3] concerns COLO 205 cells. Put plainly: MTS cytotoxicity test with COLO 205 cells. Format: cell-based, human. The following applies: three days with compound. How it is done:
as §2
On day 2, compounds for test are diluted and added to wells. Compounds are dissolved in DMSO at 10 mg/mL. For each compound, nine serial 2-fold dilutions are prepared in DMSO. Ten μL of each dilution in DMSO are transferred to 100 μL of medium, mixed well, and then 5 μL of this dilution are transferred in quadruplicate to wells containing cells. The final high concentration of each compound is typically 5 μM. Plates are returned to the incubator for three days. At the time of drug addition to the experimental plates, the MTS assay is run on the “time 0” plate. This produces the “time 0 MTS value” which is related to the number of viable cells per well at the time of drug addition.
After three days of culture with test compounds (day 5 overall), the MTS assay is done on all wells of the experimental plates. The absorbance values of the quadruplicate sample wells are averaged and divided by the average of the “time 0” values. The average of control wells without drug, divided by the average “time 0” value, gives the maximal relative increase in MTS color yield due to cell growth during the final three days of culture. The average of control wells with high drug concentration, divided by the “time 0” value, gives the minimal relative color yield for cells that were completely killed. The nine values for each compound are plotted against concentration, and the concentration that produces a relative color yield half way between the maximum and minimum is taken as the IC50 value.
COLO 205 is a human colon carcinoma cell line that is used for comparative testing of the examples of this invention and several reference compounds. This line is sensitive to paclitaxel and vincristine.

The test system of data set [4] is S1 cells. Put plainly: MTS cytotoxicity test with S1 cells. Format: cell-based, human. The conditions noted are these: mean of 2 experiments.
Excerpt: as §1, §2, §3, §4, §5

Data set [5] concerns KB-8-5 cells. Put plainly: MTS cytotoxicity test with KB-8-5 cells (moderate P-glycoprotein). The conditions noted are these: for IC50: KB 8.5 cells, mean of 2 experiments; for Ratio 8.5/KB: IC50 on KB 8.5 cells/IC50 on KB cells. Format: cell-based, human.
Excerpt: as §1, §2, §3, §4

Data set [6] deals with KB cells. Put plainly: MTS cytotoxicity test with KB cells. Format: cell-based, human. The following applies: mean of 2 experiments.
Excerpt: as §1, §2, §3, §4

Data set [7] concerns HL-60 cells. Put plainly: MTS cytotoxicity test with HL-60 cells. Format: cell-based, human. The conditions noted are these: mean of 2 experiments.
Excerpt: as §1, §2, §3, §4, §6

The test system of data set [8] is KB-V1 cells. Put plainly: MTS cytotoxicity test with KB-V1 cells (very high P-glycoprotein). Format: cell-based, human. The following applies: for IC50: KB VI cells, mean of 2 experiments; for Ratio VI/KB: IC50 on KB VI cells/IC50 on KB cells; for recognition by P-glycoprotein: inferred from change in IC50 KB-V1 vs KB.
Excerpt: as §1, §2, §3, §4

The subject of data set [9] is H157 Human Non-Small Cell Lung Carcinoma. The conditions noted are these: for T/C on day 0 / T/C on day 3 / T/C on day 7 / T/C on day 10 / T/C on day 13: schedule day 0.
Experimental: The ability of compounds of this invention to inhibit tumor growth in animals is studied in the athymic mouse xenograft standard pharmacological test. Female nu/nu mice in an outbred albino background are obtained from Charles River Laboratories (Wilmington, Mass.). Animals are injected subcutaneously on the flank with the desired tumor cell suspension. Several days later, mice with tumors of approximately 100 mm^3 are selected from those injected (staged) and randomly distributed into groups of 5-10. The day of staging is called day 0. Compounds of the invention, formulated in saline, are administered to animals by intravenous injection or oral gavage on various schedules starting on day 0 or 1, as noted in the tables. The control group in each experiment is dosed with vehicle on the same schedule. Tumor size is measured every 3-7 days with calipers in two orthogonal dimensions, and tumor volume is calculated from the formula volume=[(length×width^2)/2].
Tumor/Control (T/C) is obtained by dividing the mean tumor volume of the treated group by the mean tumor volume of the control group on each measurement day. […] A p value≦0.05, determined by one-side Student's t-test, is required for statistical significance. A treatment dose is defined as toxic if more than 30% of the animals die from a compound-related toxicity.

Read-outs that look alike come from different tables or passages of the source. Marks after values point to notes of the source that are not given here.
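Throughout, for T/C on day 0: subcutaneous flank tumors in female athymic nu/nu mice, staged near 100 mm^3 on day 0, tumor volume from caliper measurements, vehicle-dosed controls on the same schedule.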
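Throughout, for T/C on day 10: subcutaneous flank tumors in female athymic nu/nu mice, staged near 100 mm^3 on day 0, tumor volume from caliper measurements, vehicle-dosed controls on the same schedule.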
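Throughout, for T/C on day 3: subcutaneous flank tumors in female athymic nu/nu mice, staged near 100 mm^3 on day 0, tumor volume from caliper measurements, vehicle-dosed controls on the same schedule.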
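Throughout, for T/C on day 7: subcutaneous flank tumors in female athymic nu/nu mice, staged near 100 mm^3 on day 0, tumor volume from caliper measurements, vehicle-dosed controls on the same schedule.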

For `CN(C)CCCOc1cc(F)c(-c2c(Cl)nc(-c3ccc4ccccc4n3)nc2NCC(F)(F)F)c(F)c1` [Example 30, 6-Chloro-5-{4-[3-(dimethylamino)propoxy]-2,6-difluorophenyl}-2-quinolin-2-yl-N-(2,2,2-trifluoroethyl)pyrimidin-4-amine], the IC50 in [1] (Homo sapiens) came to 201 nM; in data set [2] (Homo sapiens, HL60/ADR), 71 nM; in data set [3] (Homo sapiens, 72 h), 7.4 nM; in [4] (Homo sapiens) it was 138 nM; in [5] (Homo sapiens), 68 nM; in data set [6] (Homo sapiens), 60 nM. Further, the IC50 in [7] (Homo sapiens) was found to be 88 nM; in data set [8] (Homo sapiens, KB-V1) it was 82 nM. In addition, the Ratio was 1.5 in data set [1] and 0.8 in data set [2].
On to `CN(C)CCCOc1cc(F)c(-c2c(Cl)nc(-c3cnccn3)nc2NCC(F)(F)F)c(F)c1.Cl` [Example 25a, 6-Chloro-5-{4-[3-(dimethylamino)propoxy]-2,6-difluorophenyl}-2-pyrazin-2-yl-N-(2,2,2-trifluoroethyl)pyrimidin-4-amine hygrogen chloride], for which the Ratio stood at 1.3 in [1] and 0.9 in data set [2]. Further, the IC50 in [1] came out at 36 nM; in [2], 21 nM; in data set [3] it was 18 nM; in data set [4], 27 nM; in data set [5], 24 nM; in [6], 20 nM. Also, the IC50 was found to be 23 nM in data set [7] and 99 nM in [8]. In addition, the “T/C on day 0” value in [9] (5 mg/kg IV, H157 (Table 10)) is on record as 1.02; in data set [9] (10 mg/kg IV, H157), 1.01. Also, the “T/C on day 3” value is on record as 0.69* in [9] (5 mg/kg IV, H157 (Table 10)) and 0.49** in data set [9] (10 mg/kg IV, H157). The “T/C on day 7” value in [9] (5 mg/kg IV, H157 (Table 10)) is given as 0.44**; in data set [9] (10 mg/kg IV, H157), 0.36**. Besides, the “T/C on day 10” value in data set [9] (5 mg/kg IV, H157 (Table 10)) is listed as 0.29**; in data set [9] (10 mg/kg IV, H157), 0.22**. For the same compound, the “T/C on day 13” value in [9] (5 mg/kg IV, H157 (Table 10)) is given as 0.23**; in [9] (10 mg/kg IV, H157), 0.12**. For the same compound, the compound toxicity result in [9] (H157 NSCLC, intravenously on day 0, highest dose (10 mg/kg)) is “some compound toxicity is observed”. The “Ratio VI/KB” value in data set [8] came out at 4.9. Also, in data set [8], the “recognition by P-glycoprotein” value was “show recognition by P-glycoprotein, but much less than that shown by paclitaxel and vincristine”.
Take `CNc1nc(Cl)c(-c2c(F)cc(OCCCN(C)C)cc2F)c(NCC(F)(F)F)n1.O=C(O)C(F)(F)F` [Example 20a, 6-Chloro-5-{4-[3-(dimethylamino)propoxy]-2,6-difluorophenyl}-N^2-methyl-N^4-(2,2,2-trifluoroethyl)pyrimidine-2,4-diamine trifluoroacetic acid salt]: the IC50 in data set [1] (Homo sapiens) worked out at 82 nM; in data set [2] (Homo sapiens, HL60/ADR), 68 nM; in data set [3] (Homo sapiens, 72 h), 56 nM; in [4] (Homo sapiens), 95 nM; in data set [5] (Homo sapiens) it was 57 nM; in data set [6] (Homo sapiens), 26 nM. For the same compound, the IC50 came out at 72 nM in data set [7] (Homo sapiens) and 140 nM in data set [8] (Homo sapiens, KB-V1). Also, the Ratio in data set [1] and in [2] was 0.9 throughout. Moreover, the “Ratio VI/KB” value in data set [8] is given as 5.5. Moreover, in data set [8], the “recognition by P-glycoprotein” value was “show recognition by P-glycoprotein, but much less than that shown by paclitaxel and vincristine”.
On to `O=C1c2c(O)ccc(O)c2C(=O)c2c(NCCNCCO)ccc(NCCNCCO)c21` [Mitoxantrone, reference compound], for which the IC50 in data set [1] (Homo sapiens) is > 3000 nM; in data set [2] (Homo sapiens, HL60/ADR), 259 nM; in data set [4] (Homo sapiens) it was 25 nM; in [5] (Homo sapiens) it was 256 nM; in data set [6] (Homo sapiens), 132 nM; in data set [7] (Homo sapiens), 17 nM. For the same compound, inhibition in data set [8] (Homo sapiens, KB-V1) was half-maximal at 401 nM (IC50). The figures for the Ratio in data set [1], in [1] (listed as mitoxantrone) and in [2] were >120, > 120 and 15, respectively. In data set [5], the “Ratio 8.5/KB” value is on record as 1.9. Also, the “Ratio VI/KB” value in data set [8] turned out to be 3.0.
Regarding `COc1cccc2c1C(=O)c1c(O)c3c(c(O)c1C2=O)C[C@@](O)(C(=O)CO)C[C@@H]3O[C@H]1C[C@H](N)[C@H](O)[C@H](C)O1` [Doxorubicin, reference compound], the IC50 was 2880 nM in data set [1] (Homo sapiens); > 3000 nM in data set [2] (Homo sapiens, HL60/ADR); 61 nM in data set [4] (Homo sapiens); 255 nM in data set [5] (Homo sapiens); 38 nM in data set [6] (Homo sapiens); 40 nM in data set [7] (Homo sapiens). The IC50 in [8] (Homo sapiens, KB-V1) was > 300 nM. The Ratio in data set [1] is recorded as 47; in data set [2], >75; in [2] (listed as doxorubicin), > 75. In addition, in [5], the “Ratio 8.5/KB” value was determined as 6.8. In addition, the “Ratio VI/KB” value in data set [8] is >79; in [8] (listed as doxorubicin), > 79.
